# Key:
# [1] = cited from earlier work
# [2] = 24-hour urinary uric acid excretion, open-label fixed-sequence clinical study (NCT01428284); format: in vivo, human; settings: for Increase of mean urinary urate excretion compared to baseline: canagliflozin alone; for Urine urate excretion, Mean / Urine urate excretion, Mean Change from Day−1: healthy subjects, 24-hour urine, canagliflozin 300 mg once daily from Day 1
# From the text: (§1) A single-center, open-label, fixed-sequence study to assess the effects of multiple-dose probenecid on multiple-dose of canagliflozin, in healthy subjects, was completed as described below (study NCT01428284) on clinicaltrials.gov registry website). The study consisted of 3 phases: (1) a Screening Phase of approximately 19 days (Day −21 to Day −3), (2) an Open-label Treatment Phase of 20 days (Day −2 to Day 18), and (3) a Follow-up phase (7 to 10 days after discharge on Day 18). The total duration of the study was approximately 49 days.
# (§2) Subjects with history of (or current) any of the following medical conditions were excluded: (a) Acute or chronic renal insufficiency (eGFR below 90 mL/min/1.73 m^2); (b) Kidney or bladder stones (nephrolithiasis); (c) Hyperuricosuria (>800 mg/day), or gout; and/or (d) Hyperuricemia (>6.8 mg/dL, 404 μmol/L). Reasons for subject withdrawal from the study could include the following: (a) Lost to follow-up; (b) Withdrawal of consent; (c) Withdrawal of consent for pharmacogenomic research (Part 1); (d) Subject was not in compliance with requirements of the study and prohibitions and restrictions; and/or (e) A subject could be discontinued from study treatment (final assessments were to be obtained) if the investigator believed that for safety reasons (eg, adverse event) it was in the best interest of the subject to stop study treatment.
# (§3) All study drugs were taken between 7:30 and 9:30 a.m. with 240 mL of noncarbonated water. Study drug was swallowed whole and not chewed, divided, dissolved or crushed. […] For each subject, on days when both canagliflozin and probenecid were administered, both doses were administered at approximately the same time.
# (§4) Canagliflozin was administered as a single 300-mg tablet on Days 1 to Day 17. Probenecid was administered b.i.d. as one 500-mg tablet from Day 15 to Day 17. On Day 14 and Day 17, subjects received study drug under fasted conditions, and standardized lunch approximately 4 hours after study drug administration. On all other study days, subjects received canagliflozin and/or probenecid 1 hour before they received a standardized meal. The study diet was standardized by the site dietician in order to minimize the effect on uric acid levels. Subjects were also advised not to consume high purine-enriched foods from screening to completion of the study.
# (§5) All laboratory testing was conducted by a licensed clinical laboratory (Physicians Reference Laboratory [PRL]), 7800 West 110th Street, Overland Park, Kans. 66210-2304). Clinical laboratory tests included, among others:
# (b) Urinary uric acid excretion: A 24-hour total urine was collected at the time points specified in the Time and Events Schedule of the study protocol. The samples were mixed thoroughly and stored between 2° C. and 8° C. until shipment.
# (§6) Laboratory data were summarized by type of laboratory test. Normal reference ranges and abnormal results were used in the summary of laboratory data. Descriptive statistics were calculated for each laboratory analyte at baseline, Day 18, and end-of-study.
# Table 2, below, lists mean urine uric acid excretion and calculated mean changes through the course of the study. FIG. 2 illustrates said mean uric acid excretion (±standard deviation) as a function of study day.
# [3] = Fasting serum urate levels, open-label fixed-sequence clinical study (NCT01428284); format: in vivo, human; settings: for Decrease of mean serum urate level from baseline: canagliflozin alone; for Serum urate level, Mean / Serum urate level, Mean Decrease: healthy subjects, canagliflozin 300 mg once daily from Day 1
# From the text: as §1, §2, §3, §4, §5
# (a) Serum chemistry: glucose, creatinine, blood urea nitrogen (BUN), total protein, total bilirubin, phosphate, albumin, calcium, fasting serum uric acid, sodium, potassium, chloride, magnesium, lactic acid dehydrogenase, alkaline phosphatase, alanine transaminase, aspartate transaminase, gamma-glutamyltransferase, bicarbonate, creatine phosphokinase, total cholesterol (screening only), and triglycerides (screening only); and
# as §6
# Table 1, below lists mean serum urate levels and calculated mean decrease through the course of the study. […] FIG. 1 illustrates said mean serum urate levels (±standard deviation) as a function of study day.
compound,measurement,setting,value
Oc1ncnc2[nH]ncc12 [Allopurinol],Patients with side-effects,[1],up to 20%
Cc1ccc([C@@H]2O[C@H](CO)[C@@H](O)[C@H](O)[C@H]2O)cc1Cc1ccc(-c2ccc(F)cc2)s1 [canagliflozin],Increase of mean urinary urate excretion compared to baseline,[2]; Day 1,approximately 19%
same,Increase of mean urinary urate excretion compared to baseline,[2]; Day 2,~6%
same,Increase of mean urinary urate excretion compared to baseline,[2]; Day 13,~1%
same,"Urine urate excretion, Mean",[2]; Day 1,5.068 mmol/day
same,"Urine urate excretion, Mean Change from Day−1",[2]; Day 1,0.796 mmol/day
same,"Urine urate excretion, Mean",[2]; Day 2,4.544 mmol/day
same,"Urine urate excretion, Mean Change from Day−1",[2]; Day 2,0.273 mmol/day
same,"Urine urate excretion, Mean",[2]; Day 13,4.319 mmol/day
same,"Urine urate excretion, Mean Change from Day−1",[2]; Day 13,0.048 mmol/day
same,"Urine urate excretion, Mean",[2]; Day 14,4.208 mmol/day
same,"Urine urate excretion, Mean Change from Day−1",[2]; Day 14,-0.064 mmol/day
same,Decrease of mean serum urate level from baseline,[3]; Day 2,approximately 19%
same,Decrease of mean serum urate level from baseline,[3]; Day 3,~24%
same,Decrease of mean serum urate level from baseline,[3]; Day 14,~23%
same,"Serum urate level, Mean",[3]; Day 1,293.151 µmol/L
same,"Serum urate level, Mean Decrease",[3]; Day 1,-5.523 µmol/L
same,"Serum urate level, Mean",[3]; Day 2,241.580 µmol/L
same,"Serum urate level, Mean Decrease",[3]; Day 2,-57.650 µmol/L
same,"Serum urate level, Mean",[3]; Day 3,228.769 µmol/L
same,"Serum urate level, Mean Decrease",[3]; Day 3,-70.461 µmol/L
same,"Serum urate level, Mean",[3]; Day 14,229.684 µmol/L
same,"Serum urate level, Mean Decrease",[3]; Day 14,-69.546 µmol/L

# Reference: US20160022632A1, “COMBINATION OF CANAGLIFLOZIN AND PROBENECID FOR THE TREAMENT OF HYPERURICEMIA” (JANSSEN PHARMACEUTICA NV, priority 2013, published 2016)
